Laboratory results taken from US5912258A, “Thiadiazoleamide derivative and anti-ulcer drug” (Shiseido Co., Ltd., priority 1998, dated 1999).

Experiments:
[1] = MTT: Cell Damaging and Protecting Effect Test; format: cell-based, male Japanese White rabbit; details: rabbit, gastric mucosa cells, 10^-4 M, smaller value is better, read-out: MTT: cell damaging rate
Text: MTT: Cell Damaging and Protecting Effect Test
It is confirmed that there is no toxicity in cell level. Those having toxicity in cell level are inappropriate as an anti-ulcer drug.
A male Japanese White rabbit (2.5 to 3 kg) was anesthetized to death by Nembutal™ and, immediately thereafter, its stomach was removed. The greater curvature of the stomach was incised so as to remove the stomach contents therefrom. After the mucosal surface was washed with HBSS (Hank's Balanced Salt Solution), the stomach in ice-cooled HBSS was transferred to a laboratory. Then, after the pyloric antrum was removed, the gastric corpus mucosa was separated by a spatula and then minced into 2 to 3 mm pieces in BME (Basal Medium Eagle). Thereafter, these pieces were shaken at 120 to 130 cycles/minute for 15 minutes at 37° C. in BME 60 ml containing 280 U/ml of dispase and 30 to 50 U/mil of collagenase. Here, the concentration of collagenase was appropriately changed for each lot in view of the state of cells. The pieces were washed twice with EBSS (Earle's Balanced Salt Solution) containing 1 mM of EDTA and then shaken in MEM (Minimum Essential Medium) containing 1 mM of EDTA at 37° C. for 5 minutes. Subsequently, they were shaken in the dispase and collagenase having the same concentrations as those mentioned above for 15 minutes so as to remove the supernatant and then further shaken at 37° C. for 50 to 60 minutes at 120 to 130 cycles/minute. Then, after being washed twice with HBSS, Ham F12 containing 2% of Ultrocer G™ was used to attain the concentration of 1×10^6 cells/ml. Thus formed suspension was dispensed in each well of a 96-well plate by 200 μl. The plate was incubated in the atmosphere composed of 5% CO2 and 95% air at 37° C. for three days so as to attain a confluent state and then subjected to MTT assay.
The sample compound was dissolved in DMSO so as to attain a concentration of 10^-2 M and then diluted with HBSS containing 2% of Ultrocer G™ so as to attain a final concentration of 10^-4 M. To each group, which 8 wells were used for, 10 μl of MTT reagent was added immediately after 100 μl of the medium in each well was exchanged for same volume of the resulting solution of the sample compound. After being incubated in an atmosphere composed of 5% CO2 and 95% air at 37° C. for 4 hours, thus formed solution was centrifuged and then its supernatant was discarded. Subsequently, 100 μl of 100% ethanol was added to the residue so as to dissolve MTT formazan. Then, the absorbance (OD: 570 to 630) was measured by a microplate reader. This method utilizes a phenomenon in which MTT is changed to MTT formazan only by mitochondria of living cells so as to change color.
The cell damaging or cell protecting effect of the sample compound at the final concentration of 10^-4 M was expressed as cell damaging rate (%) as follows:
cell damaging rate (%)={1-(absorbance in sample group/absorbance in control group)}×100
Accordingly, the smaller value is better in the cell damaging rate.

gastric mucosa = test: PD: Gastric Mucosal Integrity Test (gastric mucosal potential difference); format: in vivo, Male Crj:SD rats; set-up: key: 5: Same as the control with no recognizable damage at all.; 4: Though a slight PD-decreasing tendency suggesting a slight possibility of mucosal damage is found, there is no problem.; 3: Though a weak decrease in PD and a possibility of a weak mucosal damage is recognized, there is no substantial problem.; 2: Medium degree of decrease in PD is found and a mucosal damage is recognized.; 1: Heavy degree of decrease in PD is found and a remarkable mucosal damage is recognized; details: rat, 100 mg/kg into the chamber, 60 minutes
Procedure: PD: Gastric Mucosal Integrity Test
In this case, since the sample compound has a necrotizing effect, it is inappropriate as an anti-ulcer medicament.
Therefore, the gastric mucosal potential difference (PD), which reflects the integrity of the gastric mucosa, is measured so as to confirm that the sample compound has no damaging effect on gastric mucosa, which is toxicity at gastric mucosal level.
Male Crj:SD rats (7 to 8-week-old) were fasted overnight, but allowed free access to water, and then, under urethane anesthesia (1.25 g/kg, i.p.), fixed to a cork board on its back. The abdomen of each rat was incised, and a small incision was made in the forestomach. Then, the inside of the stomach was washed with physiological saline heated at 37° C. From the forestomach, along the greater curvature thereof, the stomach was incised without damaging blood vessels. After the height of the cork board was adjusted on a jack, the stomach was mounted on ex vivo chamber. The area of the gastric mucosa exposed to the inside of this chamber was 2.5 cm^2. The inside of the chamber was perfused with physiological saline warmed at 37° C. by micro tube pump. By using an agar bridge containing 3M KCl, the potential difference between the chamber and the abdominal cavity was measured by a PD meter. Here, the rectal temperature was measured to control the body temperature during the experiment. After the PD was sufficiently stabilized, the perfusate was stopped and then 100 mg/10 ml/kg of the sample compound dissolved or suspended in an aqueous solution of 0.5% sodium carboxymethylcellulose or 0.05% Tween 80 was administered into the chamber, while PD was recorded for 60 minutes. To a control, the vehicle was administered.
The change in PD during 60 minutes after the administration of 100 mg/kg of the sample compound was collectively studied and, with reference to the positive control, classified into 5 levels as follows:
5: Same as the control with no recognizable damage at all.
3: Though a weak decrease in PD and a possibility of a weak mucosal damage is recognized, there is no substantial problem.
2: Medium degree of decrease in PD is found and a mucosal damage is recognized.
1: Heavy degree of decrease in PD is found and a remarkable mucosal damage is recognized.

Row | Structure (SMILES) | cytotoxicity at 4 h, 100 µM [1] | PD: change in gastric mucosal potential difference (5 levels) (gastric mucosa)
1 | CCN(CC)CCSc1nnc(NC(=O)c2ccc(C(C)C)cc2)s1 [Example 1, 2-(4-isopropylbenzoyl)amino-5-diethylaminoethylthio-1,3,4-thiadiazole] | 22% | 3
2 | CC(C)c1ccc(C(=O)Nc2nnc(SCCN(C(C)C)C(C)C)s2)cc1 [Example 2, 2-(4-isopropylbenzoyl)amino-5-diisopropylaminoethylthio-1,3,4-thiadiazole] |  | 5
3 | CCN(CC)CCSc1nnc(NC(=O)c2ccc(C(C)(C)C)cc2)s1 [Example 4, 2-(4-tert-butylbenzoyl)amino-5-diethylaminoethylthio-1,3,4-thiadiazole] | 22% | 3
4 | CCN(CC)CCSc1nnc(NC(=O)c2ccc(OC/C=C(\C)CCC=C(C)C)cc2)s1 [Example 10, 2-(4-geranyloxybenzoyl)amino-5-diethylaminoethylthio-1,3,4-thiadiazole] | 17% | 5
5 | CC(C)=CCC/C(C)=C/COc1ccc(C(=O)Nc2nnc(SCCN3CCCCC3)s2)cc1 [Example 12, 2-(4-geranyloxybenzoyl)amino-5-piperidinoethylthio-1,3,4-thiadiazole] | 12% | 5
6 | CC(C)=CCC/C(C)=C/COc1ccc(C(=O)Nc2nnc(SCc3ccccn3)s2)cc1 [Example 14, 2-(4-geranyloxybenzoyl)amino-5-(2-pyridylmethyl)thio-1,3,4-thiadiazole] | -13% | 5
7 | CCSc1nnc(NC(=O)c2ccc(OC/C=C(\C)CCC=C(C)C)cc2)s1 [Example 15, 2-(4-geranyloxybenzoyl)amino-5-ethylthio-1,3,4-thiadiazole] | 1% | 5
